Results on 19 molecules are retold here after patent publication US8450494B2, “Disubstituted benzamide derivatives as glucokinase (GK) activators” (Cadila Healthcare Limited, priority 2010, dated 2013).

The target of the test is T1, glucokinase (GK) enzyme (Homo sapiens, UniProt P35557).
T1 sequence (P35557 1-465): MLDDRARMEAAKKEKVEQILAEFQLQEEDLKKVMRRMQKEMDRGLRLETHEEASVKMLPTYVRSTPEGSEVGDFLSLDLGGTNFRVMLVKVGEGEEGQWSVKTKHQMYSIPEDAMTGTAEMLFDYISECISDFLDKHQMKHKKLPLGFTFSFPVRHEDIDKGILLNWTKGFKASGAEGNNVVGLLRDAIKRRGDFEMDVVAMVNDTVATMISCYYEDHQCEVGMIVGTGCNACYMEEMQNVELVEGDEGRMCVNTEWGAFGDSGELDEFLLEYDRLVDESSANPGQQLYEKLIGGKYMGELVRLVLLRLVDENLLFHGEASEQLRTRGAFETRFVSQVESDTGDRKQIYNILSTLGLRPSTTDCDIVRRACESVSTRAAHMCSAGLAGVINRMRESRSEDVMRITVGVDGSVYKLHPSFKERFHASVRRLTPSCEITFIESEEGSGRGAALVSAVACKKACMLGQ
Kind of test: In-vitro glucokinase (GK) enzyme activation assay (coupled with glucose-6-phosphate dehydrogenase, absorbance at 340). The note with it: glucose 2.5 mM, ATP 1 mM; for EC50: GK activation; for activity at 0.1 µM / activity at 1 µM / activity at 5 µM / activity at 10 µM: read-out: % of GK activity wrt DMSO. Format: biochemical. On the procedure:
The compound of the invention was incubated with glucokinase (GK) enzyme (0.2 units) for 10 minutes in assay buffer at 26° C. After incubation, addition of glucose-6-phosphate dehydrogenase (2.5 units), ATP (1 mM) and glucose (2.5 mM). Absorbance is measured at 340 nm for 15 minutes with 10 second interval using UV transparent plate in kinetic mode on Spectramax-190 at 30° C.

In turn, `Cc1nnc(-c2ccc(Oc3cc(OCC4CCCCC4)cc(C(=O)Nc4nccs4)c3)cc2)o1` [Example 2.2, 3-(Cyclohexylmethoxy)-5-(4-(5-methyl-1,3,4-oxadiazol-2-yl)phenoxy)-N-(thiazol-2-yl)benzamide] yielded an EC50 of 316 nM. The activity at 0.1 µM (compound 0.1 uM) stood at 146%. Besides, for the setting “compound 1 uM”, the activity at 1 µM is 178%. Moreover, for the setting “compound 5 uM”, the activity at 5 µM was determined as 193%. Further, the activity at 10 µM (compound 10 uM) amounted to 192%.

Consider `CCOC(=O)Cc1csc(NC(=O)c2cc(Oc3ccc(-c4nnc(C)o4)cc3)cc(OC(C)COC)c2)n1` (stereo not shown) [Example 2.7, Ethyl 2-(2-(3-((1-methoxypropan-2-yl)oxy)-5-(4-(5-methyl-1,3,4-oxadiazol-2-yl)phenoxy)benzamido)thiazol-4-yl)acetate], for which the activity at 0.1 µM (compound 0.1 uM) was 288%. Further, the activity at 1 µM (compound 1 uM) came out at 349%. Moreover, the activity at 5 µM (compound 5 uM) stood at 353%. The activity at 10 µM (compound 10 uM) amounted to 345%.

As for `COC[C@H](C)Oc1cc(Oc2ccc(-c3nnc(C)o3)cc2)cc(C(=O)Nc2ncc(C#N)s2)c1` [Example 2.42, (S)—N-(5-Cyanothiazol-2-yl)-3-((1-methoxypropan-2-yl)oxy)-5-(4-(5-methyl-1,3,4-oxadiazol-2-yl)phenoxy)benzamide], the activity at 0.1 µM (compound 0.1 uM) is 126%. The activity at 1 µM (compound 1 uM) is 223%. Where the note is “compound 5 uM”, the activity at 5 µM is 306%. Besides, for the setting “compound 10 uM”, the activity at 10 µM is 333%.

As to `COCC(C)Oc1ccc(Oc2ccc(-c3nnc(C)o3)cc2)cc1C(=O)Nc1nccs1` (stereo not shown) [Example 1.3, 2-(1-Methoxypropan-2-yloxy)-5-(4-(5-methyl-1,3,4-oxadiazol-2-yl)phenoxy)-N-(thiazol-2-yl)benzamide], the activity at 0.1 µM (compound 0.1 uM) amounted to 99.8%. The activity at 1 µM (compound 1 uM) came to 96.8%. Besides, the activity at 5 µM (compound 5 uM) came to 110%. The activity at 10 µM (compound 10 uM) amounted to 107%.

`C=CCCOc1cc(Oc2ccc(-c3nnc(C)o3)cc2)cc(C(=O)Nc2nccs2)c1` [Example 1.2, 3-(But-3-enyloxy)-5-(4-(5-methyl-1,3,4-oxadiazol-2-yl)phenoxy)-N-(thiazol-2-yl)benzamide]: the 50% effective concentration (EC50) stood at 81 nM. The activity at 0.1 µM (compound 0.1 uM) is 167%. Besides, where the note is “compound 1 uM”, the activity at 1 µM was determined as 229%. Also, the activity at 5 µM (compound 5 uM) amounted to 242%. The activity at 10 µM (compound 10 uM) amounted to 244%.

Molecule `COC[C@H](C)Oc1cc(Oc2ccc(-c3nnc(C)o3)cc2)cc(C(=O)Nc2nccs2)c1` [Example 2.1, (S)-3-(1-Methoxypropan-2-yloxy)-5-(4-(5-methyl-1,3,4-oxadiazol-2-yl)phenoxy)-N-(thiazol-2-yl)benzamide] had an EC50 of 14 nM. Moreover, the activity at 0.1 µM (compound 0.1 uM) turned out to be 271%. For the setting “compound 1 uM”, the activity at 1 µM is 267%. In addition, where the note is “compound 5 uM”, the activity at 5 µM is 271%. Moreover, the activity at 10 µM (compound 10 uM) came out at 282%.

With `COC(C)CCOc1cc(Oc2ccc(-c3nnc(C)o3)cc2)cc(C(=O)Nc2nccs2)c1` (stereo not shown) [Example 1.7, 3-(3-Methoxybutoxy)-5-(4-(5-methyl-1,3,4-oxadiazol-2-yl)phenoxy)-N-(thiazol-2-yl)benzamide], the activity at 0.1 µM (compound 0.1 uM) was determined as 164%. Where the note is “compound 1 uM”, the activity at 1 µM is 228%. Also, the activity at 5 µM (compound 5 uM) was determined as 245%. Moreover, the activity at 10 µM (compound 10 uM) came to 236%.

With `Cc1nnc(-c2ccc(Oc3cc(OC(C)C4CC4)cc(C(=O)Nc4nccs4)c3)cc2)o1` (stereo not shown) [Example 1.4, 3-(1-Cyclopropylethoxy)-5-(4-(5-methyl-1,3,4-oxadiazol-2-yl)phenoxy)-N-(thiazol-2-yl)benzamide], a half-maximal effect (EC50) was put at 23 nM. Besides, the activity at 0.1 µM (compound 0.1 uM) was determined as 282%. Also, under “compound 1 uM”, the activity at 1 µM worked out at 313%. Where the note is “compound 5 uM”, the activity at 5 µM came out at 314%. Moreover, under “compound 10 uM”, the activity at 10 µM is 311%.

On to `COCC(C)Oc1cc(Oc2ccc(-c3nnc(C)o3)cc2)cc(C(=O)Nc2nccs2)c1` (stereo not shown) [Example 1.1, 3-(1-Methoxypropan-2-yloxy)-5-(4-(5-methyl-1,3,4-oxadiazol-2-yl)phenoxy)-N-(thiazol-2-yl)benzamide], for which the EC50 is 21 nM. Also, the activity at 0.1 µM (compound 0.1 uM) was 276%. Moreover, under “compound 1 uM”, the activity at 1 µM was determined as 309%. Also, for the setting “compound 5 uM”, the activity at 5 µM is 316%. For the same molecule, the activity at 10 µM (compound 10 uM) was 309%.

With `COC[C@@H](C)Oc1cc(Oc2ccc(-c3nnc(C)o3)cc2)cc(C(=O)Nc2nccs2)c1` [Example 2.15, (R)-3-(1-Methoxypropan-2-yloxy)-5-(4-(5-methyl-1,3,4-oxadiazol-2-yl)phenoxy)-N-(thiazol-2-yl)benzamide], the activity at 0.1 µM (compound 0.1 uM) turned out to be 105%. For the same molecule, where the note is “compound 1 uM”, the activity at 1 µM came to 164%. In addition, where the note is “compound 5 uM”, the activity at 5 µM amounted to 239%. Also, the activity at 10 µM (compound 10 uM) stood at 266%.

On to `COCC(C)Oc1cc(Oc2ccc(-c3nnc(C)o3)cc2)cc(C(=O)Nc2nc(C)cs2)c1` (stereo not shown) [Example 2.10, 3-((1-Methoxypropan-2-yl)oxy)-5-(4-(5-methyl-1,3,4-oxadiazol-2-yl)phenoxy)-N-(4-methylthiazol-2-yl)benzamide], for which the activity at 0.1 µM (compound 0.1 uM) was 310%. Further, the activity at 1 µM (compound 1 uM) worked out at 370%. For the same molecule, the activity at 5 µM (compound 5 uM) was determined as 368%. Further, the activity at 10 µM (compound 10 uM) came to 356%.

As to `COCC(C)Oc1cc(Oc2ccc(-c3nnc(C4CC4)o3)cc2)cc(C(=O)Nc2nccs2)c1` (stereo not shown) [Example 2.28, 3-(4-(5-Cyclopropyl-1,3,4-oxadiazol-2-yl)phenoxy)-5-((1-methoxypropan-2-yl)oxy)-N-(thiazol-2-yl)benzamide], the activity at 0.1 µM (compound 0.1 uM) stood at 223%. The activity at 1 µM (compound 1 uM) worked out at 450%. Where the note is “compound 5 uM”, the activity at 5 µM was 493%. In addition, the activity at 10 µM (compound 10 uM) worked out at 488%.

On to `C=CCCOc1cc(Oc2ccc(-c3nnc(C)o3)cc2)cc(C(=O)Nc2ncc(C)s2)c1` [Example 2.13, 3-(But-3-en-1-yloxy)-5-(4-(5-methyl-1,3,4-oxadiazol-2-yl)phenoxy)-N-(5-methylthiazol-2-yl)benzamide], for which the activity at 0.1 µM (compound 0.1 uM) was determined as 112%. The activity at 1 µM (compound 1 uM) was found to be 180%. Further, where the note is “compound 5 uM”, the activity at 5 µM is 233%. In addition, the activity at 10 µM (compound 10 uM) worked out at 215%.

As for `COCC(C)Oc1cc(Oc2ccc(-c3nnc(C)o3)cc2)cc(C(=O)Nc2ncc(Br)s2)c1` (stereo not shown) [Example 2.36, N-(5-Bromothiazol-2-yl)-3-((1-methoxypropan-2-yl)oxy)-5-(4-(5-methyl-1,3,4-oxadiazol-2-yl)phenoxy)benzamide], under “compound 0.1 uM”, the activity at 0.1 µM was 210%. For the same molecule, the activity at 1 µM (compound 1 uM) was 271%. The activity at 5 µM (compound 5 uM) stood at 316%. In addition, the activity at 10 µM (compound 10 uM) amounted to 302%.

Turning to `COCC(C)Oc1cc(Oc2ccc(-c3nnc(C)o3)cc2)cc(C(=O)Nc2ncc(C(=O)O)s2)c1` (stereo not shown) [Example 2.18, 2-{3-[(1-Methoxypropan-2-yl)oxy]-5-[4-(5-methyl-1,3,4-oxadiazol-2-yl)phenoxy]benzamido}thiazole-5-carboxylic acid], the activity at 0.1 µM (compound 0.1 uM) turned out to be 105%. The activity at 1 µM (compound 1 uM) stood at 149%. Moreover, the activity at 5 µM (compound 5 uM) was found to be 251%. Moreover, the activity at 10 µM (compound 10 uM) was determined as 260%.

As for `Cc1nnc(-c2ccc(Oc3cc(OCC45CC6CC(CC(C6)C4)C5)cc(C(=O)Nc4nccs4)c3)cc2)o1` [Example 1.9, 3-(4-(5-Methyl-1,3,4-oxadiazol-2-yl)phenoxy)-5-(admantanemethoxy)-N-(thiazol-2-yl)benzamide], the “% of GK activity wrt DMSO” value by setting is: (compound 0.1 uM) 121.83%; (compound 1 uM) 137.7%; (compound 5 uM) 141.3%; (compound 10 uM) 153.4%.

Turning to `COCC(C)Oc1cc(Oc2cccc(-c3nnc(C)o3)c2)cc(C(=O)Nc2nccs2)c1` (stereo not shown) [Example 2.21, 3-((1-Methoxypropan-2-yl)oxy)-5-(3-(5-methyl-1,3,4-oxadiazol-2-yl)phenoxy)-N-(thiazole-2-yl)benzamide], the activity at 0.1 µM (compound 0.1 uM) stood at 179%. Also, the activity at 1 µM (compound 1 uM) was 287%. Besides, the activity at 5 µM (compound 5 uM) was 318%. Where the note is “compound 10 uM”, the activity at 10 µM was determined as 293%.

For the molecule `COCC(C)Oc1cc(Oc2ccc(-c3nnc(C)o3)cc2)cc(C(=O)Nc2nc(CC(=O)O)cs2)c1` (stereo not shown) [Example 2.8], the “% of GK activity wrt DMSO” value is on record as 239.5% (compound 0.1 uM), 323.6% (compound 1 uM), 336.3% (compound 5 uM) and 328.9% (compound 10 uM).

Molecule `Cc1nnc(-c2ccc(Oc3cc(OCC4CC4)cc(C(=O)Nc4nccs4)c3)cc2)o1` [Example 1.5, 3-(Cyclopropylmethoxy)-5-(4-(5-methyl-1,3,4-oxadiazol-2-yl)phenoxy)-N-(thiazol-2-yl)benzamide] had an EC50 of 88 nM. Moreover, for the setting “compound 0.1 uM”, the activity at 0.1 µM was determined as 234%. For the same molecule, under “compound 1 uM”, the activity at 1 µM was 292%. The activity at 5 µM (compound 5 uM) amounted to 305%. Further, under “compound 10 uM”, the activity at 10 µM is 293%.

As usually defined, the EC50 is the concentration needed to bring the measured effect to its halfway point. Low readings indicate an effect from little substance, high ones a need for much substance.
